{"source": "patent US20210059963A1", "about": "“Beta-blockers for treating and/or preventing pathological scars” (GENEPRED BIOTECHNOLOGIES, priority 2017, published 2021)", "format_in_all_cases": "in vivo, human", "key": {"[1]": {"system": "patients with keloid scars", "experiment": "Effect of propranolol on pain associated with keloids (patient report)", "from_the_text": "(§1) During a clinical evaluation and treatment of subjects infected with Schistosoma mansoni in Uganda, the inventors used propranolol to lower portal blood pressure in subjects with severe liver disease (hepatic fibrosis) and splenomegaly. High portal blood pressure causes the development of oesophageal varices and variceal bleedings that are the principal cause of death in S.mansoni-infected subjects. Propranolol is currently used to reduce the risk of variceal bleedings because that drug has blocking effects on beta receptors of the nervous system, thus reducing portal pressure. Five to ten percent of the 5000 fishermen and fisher women of the study had haemorrhagic bleedings from oesophageal varices or were at risk of bleeding. In an attempt to reduce bleedings, propranolol was given to them by the oral route, one 40 mg pill per day. This molecule has little side effects and can be prescribed safely for very long periods excepted to asthmatic subjects and to patients with cardiac problems.\n(§2) During the study, one of the patients had mentioned that their keloid scars were not itching any more since they were treated for high portal pressure. This prompted the inventors to check whether this effect had also been noticed by other patients under the same treatment. The data presented here, have been obtained on 30 of these patients, they were collected from 30 out of 60 patients who had received this same treatment because of a high risk of variceal bleedings. The remaining 30 patients were not available, at that time, for evaluation of the propranolol effects.\n(§3) Keloid Grading: Patient keloid scars were classified as low, intermediate or high severity.\n(§4) Low severity corresponded to one or two scars on any part of the body, intermediate severity corresponded to various scars (including large cordons) on at least 3 different part of the body. Severe grades keloids combined extended large patches and many long and large scars on different part of the body.\n(§5) Statistical analysis was performed using the SPSS software. The effects of the treatment were tested with the nonparametric Wlcoxon test performed on paired data (before and after treatment). P values were calculated for a two sided test."}, "[2]": {"system": "patients with keloid scars", "experiment": "Overall evaluation of the effect of the treatment on patient clinical conditions", "from_the_text": "as §1, §2\nThe proposed answers were: a lot of improvement, much improvement, a little improvement and no improvement. […] Only one answer per patient was accepted. Forty four (44.8%) and twenty seven (27.6%) percent of the patients estimated that the treatment had improved either much or a lot their condition, respectively."}, "[3]": {"system": "patients with keloid scars", "experiment": "Effect of propranolol on itching associated with keloids (patient report)", "from_the_text": "as §1, §2, §3, §4, §5"}, "[4]": {"settings": "Global 1 + 2, oral 40 mg per day"}, "[5]": {"settings": "Pain Prior to Propranolol 1, oral 40 mg per day"}, "[6]": {"settings": "Pain Prior to Propranolol 2, oral 40 mg per day"}, "[7]": {"settings": "share of patients with this effect who had Pain Prior to Propranolol 1"}, "[8]": {"settings": "share of patients with this effect who had Pain Prior to Propranolol 2"}, "[9]": {"settings": "Global 1 + 2, 40 mg per day for 2 to 4 days, oral"}, "[10]": {"settings": "Global 1 + 2, 40 mg per day for 2 to 4 days, oral, listed as propranol"}, "[11]": {"settings": "Itching prior to Treatment 1, oral 40 mg per day"}, "[12]": {"settings": "Itching prior to Treatment 2, oral 40 mg per day"}, "[13]": {"settings": "share of patients with this effect who had Itching prior to Treatment 1"}, "[14]": {"settings": "share of patients with this effect who had Itching prior to Treatment 2"}}}
{"smiles": "CC(C)NCC(O)COc1cccc2ccccc12", "note": "(centres unmarked) [propranolol]", "values": [{"measurement": "study subjects reporting no effects of the treatment on keloid associated pain", "setting": "[1]", "result": 20, "unit": "%"}, {"measurement": "study subjects reporting reduction of the pain", "setting": "[1]", "result": 56.7, "unit": "%"}, {"measurement": "Effects of Propranolol on Pain: Total, % in 1 + 2", "setting": "[1]; [4]", "result": 29.2, "unit": "%"}, {"measurement": "Effects of Propranolol on Pain: none, % in 1 + 2", "setting": "[1]; [4]", "result": 25.0, "unit": "%"}, {"measurement": "Effects of Propranolol on Pain: partial, % in 1 + 2", "setting": "[1]; [4]", "result": 45.8, "unit": "%"}, {"measurement": "Effects of Propranolol on Pain: Total, % in 1", "setting": "[1]; [5]", "result": 35.7, "unit": "%"}, {"measurement": "Effects of Propranolol on Pain: none, % in 1", "setting": "[1]; [5]", "result": 28.6, "unit": "%"}, {"measurement": "Effects of Propranolol on Pain: partial, % in 1", "setting": "[1]; [5]", "result": 35.7, "unit": "%"}, {"measurement": "Effects of Propranolol on Pain: Total, % in 2", "setting": "[1]; [6]", "result": 20.0, "unit": "%"}, {"measurement": "Effects of Propranolol on Pain: none, % in 2", "setting": "[1]; [6]", "result": 20.0, "unit": "%"}, {"measurement": "Effects of Propranolol on Pain: partial, % in 2", "setting": "[1]; [6]", "result": 60.0, "unit": "%"}, {"measurement": "study subjects reporting a total abolition of pain", "setting": "[1]; for at least 2 to 3 days", "result": 23.3, "unit": "%"}, {"measurement": "effect of the treatment on pain as a function of keloid grades", "setting": "[1]; patients with all keloid grades (low, intermediate, high), FIG. 2", "result": "reduced"}, {"measurement": "Effects of Propranolol on Pain: Total, % in none/partial/total", "setting": "[1]; [7]", "result": 71.4, "unit": "%"}, {"measurement": "Effects of Propranolol on Pain: none, % in none/partial/total", "setting": "[1]; [7]", "result": 66.7, "unit": "%"}, {"measurement": "Effects of Propranolol on Pain: partial, % in none/partial/total", "setting": "[1]; [7]", "result": 45.5, "unit": "%"}, {"measurement": "Effects of Propranolol on Pain: Total, % in none/partial/total", "setting": "[1]; [8]", "result": 28.6, "unit": "%"}, {"measurement": "Effects of Propranolol on Pain: none, % in none/partial/total", "setting": "[1]; [8]", "result": 33.3, "unit": "%"}, {"measurement": "Effects of Propranolol on Pain: partial, % in none/partial/total", "setting": "[1]; [8]", "result": 54.5, "unit": "%"}, {"measurement": "patients estimating that the treatment had improved a lot their condition", "setting": "[2]; answer: a lot of improvement, FIG. 3", "result": 27.6, "unit": "%"}, {"measurement": "patients estimating that the treatment had improved much their condition", "setting": "[2]; answer: much improvement, FIG. 3", "result": 44.8, "unit": "%"}, {"measurement": "patients who felt that the treatment had clearly improved their clinical status", "setting": "[2]; total of much and a lot of improvement", "result": 72.4, "unit": "%"}, {"measurement": "Effect of Propranolol on Itching: none, % in 1 + 2", "setting": "[3]; [9]", "result": 20.0, "unit": "%"}, {"measurement": "Effect of Propranolol on Itching: partial (marked reduction), % in 1 + 2", "setting": "[3]; [9]", "result": 56.7, "unit": "%"}, {"measurement": "Effect of Propranolol on Itching: total, % in 1 + 2", "setting": "[3]; [9]", "result": 23.3, "unit": "%"}, {"measurement": "Effect of Propranolol on Itching: none, % in 1 + 2", "setting": "[3]; [10]", "result": "Twenty"}, {"measurement": "Effect of Propranolol on Itching: total, % in 1 + 2", "setting": "[3]; [10]", "result": 23.6, "unit": "%"}, {"measurement": "Effect of Propranolol on Itching: none, % in 1", "setting": "[3]; [11]", "result": 0.0, "unit": "%"}, {"measurement": "Effect of Propranolol on Itching: partial, % in 1", "setting": "[3]; [11]", "result": 80.0, "unit": "%"}, {"measurement": "Effect of Propranolol on Itching: total, % in 1", "setting": "[3]; [11]", "result": 20.0, "unit": "%"}, {"measurement": "Effect of Propranolol on Itching: none, % in 2", "setting": "[3]; [12]", "result": 30.0, "unit": "%"}, {"measurement": "Effect of Propranolol on Itching: partial, % in 2", "setting": "[3]; [12]", "result": 45.0, "unit": "%"}, {"measurement": "Effect of Propranolol on Itching: total, % in 2", "setting": "[3]; [12]", "result": 25.0, "unit": "%"}, {"measurement": "treated patients confirming that oral administration reduced keloid scar itching", "setting": "[3]; oral administration, 30 patients", "result": 80, "unit": "%"}, {"measurement": "effect of the treatment on itching as a function of keloid grades", "setting": "[3]; patients with all keloid grades (low, intermediate, high), FIG. 1", "result": "reduced"}, {"measurement": "Effect of Propranolol on Itching: none, % in none/partial/total", "setting": "[3]; [13]", "result": 0, "unit": "%"}, {"measurement": "Effect of Propranolol on Itching: partial, % in none/partial/total", "setting": "[3]; [13]", "result": 47.1, "unit": "%"}, {"measurement": "Effect of Propranolol on Itching: total, % in none/partial/total", "setting": "[3]; [13]", "result": 28.6, "unit": "%"}, {"measurement": "Effect of Propranolol on Itching: none, % in none/partial/total", "setting": "[3]; [14]", "result": 100, "unit": "%"}, {"measurement": "Effect of Propranolol on Itching: partial, % in none/partial/total", "setting": "[3]; [14]", "result": 52.9, "unit": "%"}, {"measurement": "Effect of Propranolol on Itching: total, % in none/partial/total", "setting": "[3]; [14]", "result": 71.4, "unit": "%"}]}
